Assay results reported in ChEMBL document CHEMBL1152299, “Indazole-based liver X receptor (LXR) modulators with maintained atherosclerotic lesion reduction activity but diminished stimulation of hepatic triglyceride synthesis” (J Med Chem, 2008).

Experiments:
[1] = molecular target: T1, Oxysterols receptor LXR-beta (Homo sapiens, UniProt P55055)
T1 sequence (P55055 whole entry): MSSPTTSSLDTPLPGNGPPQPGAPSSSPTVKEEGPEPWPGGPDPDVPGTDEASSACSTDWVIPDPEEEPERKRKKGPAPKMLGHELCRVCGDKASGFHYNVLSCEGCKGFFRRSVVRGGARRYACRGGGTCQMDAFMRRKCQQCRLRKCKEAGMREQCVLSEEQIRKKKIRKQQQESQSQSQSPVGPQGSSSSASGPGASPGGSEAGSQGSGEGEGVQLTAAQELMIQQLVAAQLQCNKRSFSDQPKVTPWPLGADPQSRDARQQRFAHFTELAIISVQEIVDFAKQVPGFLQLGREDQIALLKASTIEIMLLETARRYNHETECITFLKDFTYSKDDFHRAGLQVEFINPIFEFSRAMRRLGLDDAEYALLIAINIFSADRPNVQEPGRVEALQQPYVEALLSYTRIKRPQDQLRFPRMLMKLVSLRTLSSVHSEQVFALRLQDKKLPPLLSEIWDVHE

[2] = molecular target: T1, Oxysterols receptor LXR-beta; experiment: Agonist activity at human recombinant LXRbeta ligand binding domain in human HuH7 cells co-transfected with fused Gal4-DBD by transactivation assay; assay type: cell-based, Huh-7
[3] = molecular target: T2, Nuclear receptor subfamily 1 group I member 2 (Homo sapiens, UniProt O75469)
T2 sequence (O75469 whole entry): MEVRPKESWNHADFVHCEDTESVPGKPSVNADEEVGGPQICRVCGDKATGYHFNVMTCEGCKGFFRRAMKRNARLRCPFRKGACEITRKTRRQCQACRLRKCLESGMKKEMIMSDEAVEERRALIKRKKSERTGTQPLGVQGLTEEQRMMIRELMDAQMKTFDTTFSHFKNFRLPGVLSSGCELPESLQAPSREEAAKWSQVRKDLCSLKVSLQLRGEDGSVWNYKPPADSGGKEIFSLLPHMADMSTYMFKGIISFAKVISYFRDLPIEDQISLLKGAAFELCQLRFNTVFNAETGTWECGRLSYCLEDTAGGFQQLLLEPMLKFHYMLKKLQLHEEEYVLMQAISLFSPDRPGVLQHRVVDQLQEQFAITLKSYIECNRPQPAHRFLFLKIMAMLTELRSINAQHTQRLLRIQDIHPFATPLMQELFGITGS

Progesterone receptor = molecular target: T3, Progesterone receptor (Homo sapiens, UniProt P06401); experiment: Displacement of radiolabeled progesterone from human progesterone receptor by filter paper assay
T3 sequence (P06401 whole entry): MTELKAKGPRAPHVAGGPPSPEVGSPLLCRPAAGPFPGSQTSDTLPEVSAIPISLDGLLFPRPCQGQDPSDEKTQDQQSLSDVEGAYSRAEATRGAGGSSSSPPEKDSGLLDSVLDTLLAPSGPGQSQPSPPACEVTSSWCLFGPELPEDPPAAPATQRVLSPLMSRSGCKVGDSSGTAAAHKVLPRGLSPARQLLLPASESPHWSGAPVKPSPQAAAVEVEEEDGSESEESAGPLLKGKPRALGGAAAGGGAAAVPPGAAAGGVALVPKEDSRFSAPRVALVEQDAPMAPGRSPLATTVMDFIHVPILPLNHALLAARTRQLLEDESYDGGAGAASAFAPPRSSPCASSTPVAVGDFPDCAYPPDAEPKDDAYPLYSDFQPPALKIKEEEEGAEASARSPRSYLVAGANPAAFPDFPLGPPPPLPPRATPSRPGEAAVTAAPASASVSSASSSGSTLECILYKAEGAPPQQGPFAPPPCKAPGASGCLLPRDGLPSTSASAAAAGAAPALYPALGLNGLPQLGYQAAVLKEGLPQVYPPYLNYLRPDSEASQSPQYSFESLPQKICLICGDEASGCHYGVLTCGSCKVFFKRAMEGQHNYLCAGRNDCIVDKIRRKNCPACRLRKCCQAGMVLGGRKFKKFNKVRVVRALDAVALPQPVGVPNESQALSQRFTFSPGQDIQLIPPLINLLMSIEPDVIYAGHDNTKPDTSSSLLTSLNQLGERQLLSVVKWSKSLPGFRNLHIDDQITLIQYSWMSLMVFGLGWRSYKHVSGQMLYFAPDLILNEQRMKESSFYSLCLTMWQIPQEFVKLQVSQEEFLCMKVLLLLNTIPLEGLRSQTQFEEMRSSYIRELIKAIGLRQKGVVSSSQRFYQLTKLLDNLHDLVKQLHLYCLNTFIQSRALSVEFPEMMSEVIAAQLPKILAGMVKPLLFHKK

THP-1 [4] = experiment: Effect on ABCA1 gene expression in human differentiated THP1 cells; assay type: functional, cell-based
THP-1 [5] = experiment: Effect on ABCA1 gene expression in human differentiated THP1 cells relative to TO901317; assay type: functional
THP-1 [6] = experiment: Stimulation of [3H]cholesterol efflux in human THP1 foam cells loaded with ac-LDL; assay type: functional, cell-based
THP-1 [7] = experiment: Stimulation of [3H]cholesterol efflux in human THP1 foam cells loaded with ac-LDL relative to TO901317; assay type: functional
HepG2 [8] = experiment: Effect on SREBP1c gene expression in human HepG2 cells; assay type: functional, cell-based
HepG2 [9] = experiment: Effect on SREBP1c gene expression in human HepG2 cells relative to TO901317; assay type: functional
HepG2 [10] = experiment: Effect on triglyceride accumulation in human HepG2 cells; assay type: functional, cell-based
Glucocorticoid receptor = molecular target: T4, Glucocorticoid receptor (Homo sapiens, UniProt P04150); experiment: Displacement of radiolabeled Dexamethasone from human glucocorticoid receptor by filter paper assay
T4 sequence (P04150 whole entry): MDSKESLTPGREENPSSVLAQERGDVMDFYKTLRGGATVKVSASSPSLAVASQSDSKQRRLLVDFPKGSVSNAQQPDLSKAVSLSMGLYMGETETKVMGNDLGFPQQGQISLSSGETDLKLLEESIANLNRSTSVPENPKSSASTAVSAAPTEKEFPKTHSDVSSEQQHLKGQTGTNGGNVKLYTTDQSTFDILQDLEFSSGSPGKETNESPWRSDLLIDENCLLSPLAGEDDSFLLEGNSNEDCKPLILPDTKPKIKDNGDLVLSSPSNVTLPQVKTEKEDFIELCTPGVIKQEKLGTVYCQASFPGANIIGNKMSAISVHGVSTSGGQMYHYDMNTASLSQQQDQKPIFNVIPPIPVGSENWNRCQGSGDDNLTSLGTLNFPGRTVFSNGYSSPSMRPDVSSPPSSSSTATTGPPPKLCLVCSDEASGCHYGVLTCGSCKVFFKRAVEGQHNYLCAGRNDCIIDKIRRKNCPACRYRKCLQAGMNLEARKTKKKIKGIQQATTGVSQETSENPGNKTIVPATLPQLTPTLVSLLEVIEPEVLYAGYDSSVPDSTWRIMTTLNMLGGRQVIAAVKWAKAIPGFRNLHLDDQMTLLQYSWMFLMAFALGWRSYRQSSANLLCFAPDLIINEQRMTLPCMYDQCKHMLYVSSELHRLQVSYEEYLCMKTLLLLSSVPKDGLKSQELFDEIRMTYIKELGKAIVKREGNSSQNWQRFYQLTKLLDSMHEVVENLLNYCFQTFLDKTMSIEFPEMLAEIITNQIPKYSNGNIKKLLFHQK

[11] = molecular target: Oxysterols receptor LXR-alpha (Homo sapiens, UniProt Q13133)

| SMILES | IC50 [1] [nM] | EC50 [2] [nM] | IC50 [3] [nM] | IC50 (Progesterone receptor) [nM] | EC50 (THP-1 [4]) [nM] | Efficacy (THP-1 [5]) [%] | EC50 (THP-1 [6]) [nM] | Efficacy (THP-1 [7]) [%] | EC50 (HepG2 [8]) [nM] | Efficacy (HepG2 [9]) [%] | EC50 (HepG2 [10]) [nM] | IC50 (Glucocorticoid receptor) [nM] | EC50 [11] [nM] |
| --- | --- | --- | --- | --- | --- | --- | --- | --- | --- | --- | --- | --- | --- |
| Fc1ccc(-c2c3cccc(C(F)(F)F)c3nn2Cc2ccc(F)cc2Cl)cc1 [LXR-623] | 24 | 3670 | 1770 | > 1000 | 541 | 100 | 1280 | 140 | 2110 | 58 | 1910 | 1000 | 6660 |
| Fc1ccc(-c2c3cccc(C(F)(F)F)c3nn2Cc2ccccc2F)cc1 | 33 | 4150 | 2160 | > 10000 | 551 | 89 | 549 | 132 | 1220 | 72 | 998 | 7200 | 6100 |
